These results are taken from patent US20030212013A1, “Use of amp kinase activators for treatment type 2 diabetes and insulin resistance” (priority 2002, published 2003).

Data set [1] concerns AMPK. To be noted: analogues of 5'-AMP; cited from earlier work.
Data set [2] in a line: Muscle glycogen and food intake after five daily AICAR injections. It is filed as in vivo, rat. To be noted: 24 hrs following the last of five daily AICAR injections; control 43±2. How it is done: To determine the effect of chronic activation of AMPK, rats were injected (between 8 and 10 am.) subcutaneously with AICAR (1 mg/g body weight) or saline vehicle for five days in succession. This dose was shown in preliminary experiments to increase ZMP levels in the muscle to 0.57±0.06 μmol/g after 15 min, to 0.79±0.06 μmol/g after 60 min, to 0.69±0.06 μmol/g after 90 min, and to 0.60±0.06 μmol/g after 120 minutes (n=3 at each time point). Beginning with the first injection, controls were pair fed with AICAR-injected rats. Saline injected controls ate 17±1 g and AICAR injected rats ate 18±1 g of food during the 24 hour period prior to blood and tissue collection. […] Muscles were kept under liquid nitrogen until analyzed.
(§1) Muscles from rats killed 22-25 hours following the fifth AICAR injection were analyzed for glycogen and GLUT4. […] Proteins of these homogenates were separated by SDS-PAGE using 10% resolving gels (Tris-HCl ready gels, BIO-RAD, Hercules, Calif.). […] Relative amounts of GLUT4 were then quantified using a Hewlett Packard ScanJet 6200C and SigmaGel software (SPSS, Inc, Chicago, Ill.). Total intensity of GLUT4 spots on the developed hyperfilm was expressed as a fraction of intensity shown by a GLUT4 standard run on the same gel. […]

The subject of data set [3] is AMPK. Put plainly: AMPK activity in muscles of rats following AICAR injection. It is filed as in vivo, rat. The following applies: for AMPK activity increase vs saline: 1 hour following AICAR 1 mg/g injection. From the text:
(§2) All procedures were approved by the Institutional Animal Care and Use Committee. Male Sprague-Dawley rats weighing 197±5 grams (Sasco, Wilmington, Mass. 01887) were housed in individual cages in a temperature (22-25 C.) and light-controlled (12:12-h light-dark cycle) room and were given food (Harlan Teklad rodent diet, Madison, Wis.) and water ad libitum. To determine acute in vivo effects of AICAR, a jugular catheter was installed and exteriorized on the back of the neck three days prior to the day of the experiment. This catheter was implanted for the purpose of allowing rapid anesthesia of the rat and rapid blood and tissue collection. Rats were then given AICAR (1 mg/g body weight) subcutaneously in sterile 0.9% NaCl or were given 0.9% NaCl (n=7 in each group). One hour following the subcutaneous injection of AICAR, rats were anesthetized by intravenous injection of pentobarbital (4.8 mg/100 g body weight). The epitrochlearis and gastrocnemius/plantaris muscles were quickly removed and rapidly frozen with stainless steel clamps at liquid nitrogen temperature. Blood was collected via the abdominal aorta and a perchloric acid extract was prepared (0.5 ml blood to 2.0 ml 10% HClO4), neutralized and utilized for analysis of glucose and lactate.
(§3) Muscles from rats killed 1 hour following injection of AICAR or saline were analyzed for AMPK, citrate-dependence of acetyl-CoA carboxylase, malonyl-CoA, glycogen, ZMP, ZTP, ATP, and ADP. Hassid, W Z. & S. Abraham Methods Enzymol. 3:35-36 (1957); McGarry, J. D. et al. J. Biol. Chem. 253:[…] (1978). Blood glucose and lactate were measured by enzymatic techniques. Bergmeyer, H. U., et al. D-Glucose determination with hexokinase and glucose-phosphate dehydrogenase. In: Methods of Enzymatic Analysis, edited by H. U. Bergmeyer. New York: Academic, 1196-1201 (1974); Gutmann I., & A. W. Wahlefeld. L-(+)-Lactate. Determination with lactate dehydrogenase and NAD. In: Methods of Enzymatic Analysis, edited by H. U. Bergmeyer. New York: Academic, 1464-1468 (1974).
Referring to FIG. 1, the AMPK activity in epitrochlearis and gastrocnemius/plantaris muscles of rats 1 hour following injection with 1 mg/g body weight AICAR or with saline is shown. Values are means ±SEM. […] AMPK activity was increased 2.4 fold in gastrocnemius/plantaris muscles and 4 fold in the epitrochlearis muscles 1 hour following the AICAR injection.

The nature of data set [4]: Preliminary time course of muscle ZMP after AICAR injection. It is filed as in vivo, rat. The following applies: AICAR 1 mg/g s.c., n=3, preliminary experiments. How it is done:
(§4) To determine the effect of chronic activation of AMPK, rats were injected (between 8 and 10 am.) subcutaneously with AICAR (1 mg/g body weight) or saline vehicle for five days in succession. This dose was shown in preliminary experiments to increase ZMP levels in the muscle to 0.57±0.06 μmol/g after 15 min, to 0.79±0.06 μmol/g after 60 min, to 0.69±0.06 μmol/g after 90 min, and to 0.60±0.06 μmol/g after 120 minutes (n=3 at each time point). Beginning with the first injection, controls were pair fed with AICAR-injected rats. Saline injected controls ate 17±1 g and AICAR injected rats ate 18±1 g of food during the 24 hour period prior to blood and tissue collection. Rats were anesthetized by intraperitoneal injection of pentobarbital (22-25 hrs following the last AICAR injection) and epitrochlearis, and gastrocnemius/plantaris muscles were collected and frozen as described above. Muscles were kept under liquid nitrogen until analyzed.

Data set [5] has as its system GLUT4. Kind of data set: Total GLUT4 protein (Western blot) in muscles after chronic AICAR injection. It is filed as in vivo, rat. As to the method:
as §4, with “This” for “To determine the effect of chronic activation of AMPK, rats were injected (between 8 and 10 am.) subcutaneously with AICAR (1 mg/g body weight) or saline vehicle for five days in succession. This”
as §1, with “GLUT4. For GLUT4 measurement muscle was ground to powder under liquid nitrogen. See Etgen, G. J., et al. Am. J. Physiol.” for “GLUT4.”
(In general: A western blot detects proteins with antibodies after separation by electrophoresis.)

Data set [6] is described as follows: Tolerability of daily AICAR injections. It is filed as in vivo, rat. To be noted: rats 197±5 grams, 1 mg/g body weight daily. As to the method:
ATP and ADP were not influenced by the injection with AICAR. ZTP increased from non-detectable levels to 1.2 μmol/g. […] Muscle glycogen and liver glycogen were not acutely influenced 60 minutes following a single injection of AICAR.

For data set [7] the following is noted: AICAR 0.25 mg/g body weight; normal (C57/BJ6), insulin deficient diabetic (C57/BJ6STZ) and insulin resistant diabetic (KKAy) mice; cited from earlier work.
The subject of data set [8] is acetyl-CoA carboxylase. Kind of data set: Citrate dependence of acetyl-CoA carboxylase in muscles of AICAR-injected rats. It is filed as in vivo, rat. The following applies: 1 hour following AICAR 1 mg/g.
Description: as §2
Muscles from rats killed 1 hour following injection of AICAR or saline were analyzed for AMPK, citrate-dependence of acetyl-CoA carboxylase, malonyl-CoA, glycogen, ZMP, ZTP, ATP, and ADP. Hassid, W Z. & S. Abraham Methods Enzymol. […] Blood glucose and lactate were measured by enzymatic techniques. […]
Referring to FIG. 2, the citrate dependence of acetyl-CoA carboxylase in gastrocnemius/plantaris muscles of rats 1 hour following injection with AICAR (1 mg/g body weight) or saline is illustrated. Standard errors were determined but are not shown. […] Because of the limited amount of tissue, the entire citrate activation curve could not be determined for epitrochlearis muscle, but the activity of ACC at a physiological concentration of citrate (0.2 mM) was reduced from 0.50±0.10 nmol/g/min to 0.10±0.03 nmol/g/min.

The subject of data set [9] is hexokinase. Kind of data set: Hexokinase activity in muscles after 5 days of AICAR injections. It is filed as in vivo, rat. To be noted: 5 days AICAR 1 mg/g/d, both epitrochlearis and gastrocnemius/plantaris, p<0.001. As to the method:
as §4
Hexokinase activity was determined spectrophotometrically at 30 C on 700×g supernatants of the same homogenate as was used for GLUT4 measurement Uyeda, K. & E. Racker, J Biol Chem 240:4682-4688 (1965).

The nature of data set [10]: Tissue and blood metabolites of rats after acute AICAR injection. It is filed as in vivo, rat. The following applies: AICAR 1 mg/g s.c., 60 minutes following injection, mean ± SEM n=7.
Description: as §2, §3

The mark [11] stands for this setting: resting rats injected with AICAR.

Each structure is given as a SMILES string. Where “and” joins values, the source holds several entries; their conditions need not be identical. Equal entries are not always repeated.

Turning to `Nc1ncnc2c([C@@H]3O[C@H](COP(=O)(O)O)[C@@H](O)[C@H]3O)[nH]nc12` [Formycin A 5′-monophosphate], the “Potency of AMPK activation in vitro” value in data set [1] is on record as “less potently”.

Consider `Nc1ncnc2c1ncn2[C@@H]1O[C@H](COP(N)(=O)O)[C@@H](O)[C@H]1O` [adenosine 5′-phosphoramidate], for which the “Potency of AMPK activation in vitro” value in [1] was “more potently”.

For `NC(=O)c1ncn([C@@H]2O[C@H](COP(=O)(O)O)[C@@H](O)[C@H]2O)c1N` [ZMP], in data set [1], the “Potency of AMPK activation in vitro” value is reported as “less potently”.

Regarding `Nc1ncnc2c1ncn2[C@@H]1O[C@H](COP(O)(O)=S)[C@@H](O)[C@H]1O` [adenosine-5′-thiomonophosphate], the “Potency of AMPK activation in vitro” value in data set [1] is listed as “more potently”.

In turn, `NC(=O)c1ncn([C@@H]2O[C@H](CO)[C@@H](O)[C@H]2O)c1N` [AICAR, 5-aminoimidazole-4-carboxamide ribonucleoside] gave a Gastrocnemius/plantaris glycogen in data set [2] of 87±4 μmol glucose units/g. The “AMPK activity increase vs saline” value in [3] (epitrochlearis muscles) came out at 4 fold. For the same compound, the “AMPK activity increase vs saline” value in data set [3] (gastrocnemius/plantaris muscles) worked out at 2.4 fold. Moreover, in data set [3] (setting [11]), the “Duration of increase in muscle AMPK activity” value is “at least two” and the “Time to increase in muscle AMPK activity after injection” value is not above 15 min. The “ZMP level in muscle” value in [4] (after 15 min) is 0.57 ± 0.06 µmol/g. In [4] (after 60 min), the “ZMP level in muscle” value is 0.79 ± 0.06 µmol/g. In addition, in [4] (after 90 min), the “ZMP level in muscle” value is 0.69 ± 0.06 µmol/g. The “ZMP level in muscle” value in [4] (after 120 minutes) stood at 0.60 ± 0.06 µmol/g. Moreover, the “GLUT4 in epitrochlearis and gastrocnemius/plantaris” value in [5] (AICAR 1 mg/g/d for five days, vs saline, p<0.001 epitrochlearis, p<0.01 gastrocnemius) is on record as “marked increases”. Also, in data set [5] (larger rats (350-450 grams), AICAR 0.5 mg/g body weight, n=5/group, control 0.32±0.05, preliminary experiments), the “Total GLUT4” value is recorded as 0.76±0.08 arbitrary units. For the same compound, the Tolerance of injections entry in data set [6] was “no apparent discomfort”. Also, the “Duration of acute decrease in blood glucose” value in [7] is 4 to 6 h. The “Activity of ACC at physiological citrate (0.2 mM)” value in [8] (epitrochlearis, saline 0.50±0.10) stood at 0.10±0.03 nmol/g/min. Further, in data set [8] (gastrocnemius/plantaris, saline 3.1±0.1), the “ACC citrate activation constant (Ka)” value came to 13.0 ± 0.3 mM. Besides, in data set [8] (gastrocnemius/plantaris, saline 60.1±1.3), the “ACC maximal velocity (Vmax) as a function of citrate concentration” value stood at 32.4 ± 1.3 nmol/g/min. Moreover, the “Hexokinase activity increase over control values” in [9] is “approximately 2.8 fold”. In data set [10] (gastrocnemius/plantaris), the “Muscle ADP” value was determined as 0.97 ± 0.02 µmol/g, the “Muscle ATP” value came out at 7.6 ± 0.1 µmol/g, the “Muscle Glycogen” value was 44 ± 4 µmol/g and the “Muscle Malonyl-CoA” value is 0.6 ± 0.1 nmol/g. For the same compound, in [10] (gastrocnemius/plantaris), the “Muscle ZMP” value was 0.91 ± 0.02 µmol/g; the “Muscle ZTP” value was 1.2 µmol/g and 1.18 ± 0.09 µmol/g. Besides, in data set [10], the “Blodd Glucose” value was 5.6 ± 0.6 mM, the “Blood Lactate” value is reported as 6.8 ± 0.5 mM and the “Liver Glycogen” value is 344 ± 44 µmol/g.
